Source: US20260306525A1, “COMBINATION THERAPY GLUCOCORTICOIDS AND GINSENOSIDE” (FYTAGORAS B.V., priority 2023, published 2026)
Read-outs that look alike come from different tables or passages of the source.

How the values were obtained:
IL1B [1] = experiment: qPCR IL1B expression in TNF-α-treated HeLa cells; assay type: cell-based, human; conditions: for IL1B expression (TNF-α induced) / IL1B expression (TNF-α induced), short-term: 6 h; for IL1B expression (TNF-α induced): 0.01 μM beclomethasone, 20 μM Rg1 or combination
Protocol: (§1) HeLa (human cervical cancer) cells were cultured in Dulbecco's Modified Eagle's (DMEM) High Glucose (HG) medium without phenol red supplemented with 10% Fetal Calf Serum (FCS) and 10% Glutamax (Sigma-Aldrich). The cells were maintained at 37° C. and 5% CO2. At 24 h before adding the treatment, the medium was replaced by DMEM HG with 10% charcoal-inactivated serum and 10% Glutamax (Sigma-Aldrich). The cells were exposed to short- and long-term compound treatments. […] Subsequently, TNF-α (10 ng/ml) was added along with the compound treatments for 6 h (this last step was not added in the actinomycin-D and cycloheximide experiments).
(§2) To determine levels of gene expression in zebrafish larvae, 3 dpf larvae were used in both wounded and non-wounded conditions, and after short- and long-term treatments. Groups of 15 larvae were collected in TRIzol reagent (ThermoFisher) and total RNA was isolated using miRNeasy mini kit (Qiagen, Hilden, Germany). For experiments in HeLa cells, cells were seeded in 6 well plates and after treatment, the cells were removed from the wells using TRIzol reagent and mRNA was isolated using miRNeasy mini kit (Qiagen) according to the manufacturer's instructions. The RNA samples were DNAse-treated utilizing the DNA-free™ DNA Removal Kit (ThermoFisher Scientific). The cDNA synthesis was performed using the iScript cDNA synthesis kit (Bio-Rad Laboratories, Hercules, CA, USA) using 1 μg of RNA per sample. For qPCR, 10 μM of forward primer and 10 μM of reverse primer, 12.5 μl of IQ SYBR Green Supermix (Bio-Rad Laboratories), and 2 μl of cDNA were added to the qPCR reaction mixture. […] The qPCR reactions were performed on a MyiQ-single-color real-time PCR detection system (Bio-Rad Laboratories), with initial denaturation for 3 min, 95° C., and 40 cycles of 15 s at 95.5° C., 15 s at 60° C., and 30 s at 72° C. Cycle threshold values (Ct values, i.e. the cycle numbers at which a threshold value of the fluorescence intensity was reached) were determined for each sample. The gene expression level for each sample was normalized using the expression of ppial (peptidylprolyl isomerase Ab (cyclophilin A)) for zebrafish samples, and 18S rRNA for human cells. The fold change per sample (compared to the respective control group) was calculated using the […]Ct method.

MMP9 = experiment: qPCR MMP9 expression in HeLa cells; assay type: cell-based, human; conditions: beclomethasone 1 μM, Rg1 20 μM or combination; for MMP9 expression, long-term: 30 h
Protocol: as §1
To determine levels of gene expression in zebrafish larvae, 3 dpf larvae were used in both wounded and non-wounded conditions, and after short- and long-term treatments. Groups of 15 larvae were collected in TRIzol reagent (ThermoFisher) and total RNA was isolated using miRNeasy mini kit (Qiagen, Hilden, Germany). For experiments in HeLa cells, cells were seeded in 6 well plates and after treatment, the cells were removed from the wells using TRIzol reagent and mRNA was isolated using miRNeasy mini kit (Qiagen) according to the manufacturer's instructions. The RNA samples were DNAse-treated utilizing the DNA-free™ DNA Removal Kit (ThermoFisher Scientific). The cDNA synthesis was performed using the iScript cDNA synthesis kit (Bio-Rad Laboratories, Hercules, CA, USA) using 1 μg of RNA per sample. For qPCR, 10 μM of forward primer and 10 μM of reverse primer, 12.5 μl of IQ SYBR Green Supermix (Bio-Rad Laboratories), and 2 μl of cDNA were added to the qPCR reaction mixture. […] Cycle threshold values (Ct values, i.e. the cycle numbers at which a threshold value of the fluorescence intensity was reached) were determined for each sample. […] The fold change per sample (compared to the respective control group) was calculated using the […]Ct method.

FKBP5 = experiment: qPCR FKBP5 expression in HeLa cells (GR transactivation); assay type: cell-based, human; conditions: beclomethasone 1 μM, Rg1 50 μM or combination
Protocol: as §1, §2

NFKBIA = experiment: qPCR NFKBIA expression in HeLa cells (GR transactivation); assay type: cell-based, human; conditions: beclomethasone 1 μM, Rg1 50 μM or combination
Protocol: as §1, §2

SGK1 = experiment: qPCR SGK1 expression in HeLa cells (GR transactivation); assay type: cell-based, human; conditions: beclomethasone 1 μM, Rg1 50 μM or combination
Protocol: as §1, §2

il1b [2] = experiment: qPCR il1b expression in zebrafish larvae; assay type: in vivo, zebrafish (Danio rerio); conditions: for il1b expression after wounding: 10 μM beclomethasone, 50 μM Rg1 or combination, 4 h after wounding
Protocol: as §2, with “The gene expression level for each sample was normalized using the expression of ppial (peptidylprolyl isomerase Ab (cyclophilin A)) for zebrafish samples, and 18S rRNA for human cells.” left out
To determine mRNA levels of specific genes in zebrafish, 3 dpf larvae were used (wounded and non-wounded) and after 6 h of chemical treatments (2 h pre-wounding, 4 h post-wounding), as indicated. […] Cycle threshold values (Ct values, i.e. the cycle numbers at which a threshold value of the fluorescence intensity was reached) were determined for each sample. […] The fold change per sample (compared to the respective control group) was calculated using the ΔΔCt method.

il1b [3] = conditions: previously shown, ref [17]; cited from earlier work
il6 = conditions: previously shown, ref [17]; cited from earlier work
[4] = beclomethasone 1 μM without or with Rg1 20 μM, TNF-α

SMILES	IL1B expression (TNF-α induced) (IL1B [1])	IL1B expression (TNF-α induced), short-term (IL1B [1]; Rg1 20, 100 and 500 μM)	IL1B expression (TNF-α induced), long-term vs short-term (IL1B [1]; Rg1 20, 100 and 500 μM, 30 h)	MMP9 expression, short-term (MMP9; 6 h)	MMP9 expression, long-term (MMP9)	FKBP5 expression, long-term (FKBP5)	FKBP5 expression, short-term (FKBP5)	NFKBIA expression, long-term (NFKBIA)	NFKBIA expression, short-term (NFKBIA)	SGK1 expression, long-term (SGK1)	SGK1 expression, short-term (SGK1)	il1b expression after wounding (il1b [2])	il1b expression after wounding (il1b [3])	il6 expression after wounding (il6)	IL1B expression time course, short-term (IL1B [1]; beclomethasone 0.01 μM, TNF-α)	IL1B expression time course, long-term (IL1B [1]; [4])	IL1B expression time course, short-term (IL1B [1]; [4])	IL1B expression (TNF-α induced), short-term (IL1B [1]; beclomethasone 0.1 and 1 μM)	IL1B expression (TNF-α induced), long-term (IL1B [1]; beclomethasone 0.1 and 1 μM, 30 h)	il1b expression (il1b [2]; Example 2, wounded larvae)
CC(C)=CCC[C@](C)(O[C@@H]1O[C@H](CO)[C@@H](O)[C@H](O)[C@H]1O)[C@H]1CC[C@]2(C)[C@@H]1[C@H](O)C[C@@H]1[C@@]3(C)CC[C@H](O)C(C)(C)[C@@H]3[C@@H](O[C@@H]3O[C@H](CO)[C@@H](O)[C@H](O)[C@H]3O)C[C@]12C [Rg1, (3β,6α, 12β)-3,12-Dihydroxydammar-24-ene-6,20-diyl bis-β-D-glucopyranoside]	slightly suppressed	caused a decrease in IL1B expression after short-term treatment	not significantly different after long-term treatment	slightly suppressed	more strongly after long-term treatment	did not affect the expression of these genes	did not affect the expression of these genes	did not affect the expression of these genes	did not affect the expression of these genes	did not affect the expression of these genes	did not affect the expression of these genes	slightly decreased the expression of these genes	transrepressed	transrepressed	–	–	–	–	–	–
C[C@H]1C[C@H]2[C@@H]3CCC4=CC(=O)C=C[C@]4(C)[C@@]3(Cl)[C@@H](O)C[C@]2(C)[C@@]1(O)C(=O)CO [beclomethasone, reference compound]	slightly suppressed	–	–	–	the suppressive effects of beclomethasone were significantly reduced after long-term treatment	increased over time	strongly increased the expression of these genes after short-term treatment	reduced over time	strongly increased the expression of these genes after short-term treatment	reduced over time	strongly increased the expression of these genes after short-term treatment	slightly decreased the expression of these genes	transrepressed	transrepressed	hardly showed an effect	did not show a significant suppressive effect on the expression of IL1B	exhibited a strong suppressive effect on the IL1B expression	strongly suppressed	a significant reduction in the suppressive effects of these high doses of beclomethasone was observed	suppressed the expression levels of il1b, il6 and mmp9, similarly to Bec
